In patent publication US10011572B2, “Monocyclic isoxazolines as inhibitors of cholesterol ester transfer protein” (Merck Sharp & Dohme Corp., priority 2014, dated 2018):

These compounds were tested against T1, endogenous CETP from serum (Homo sapiens, UniProt P11597) (assay: RTA assay in 95% human serum (in vitro radioactive assay of CETP-catalyzed CE and TG transfer, endogenous CETP)). Conditions: read-out: IC50 (nM) RTA with 95% HS.
T1 construct: yielding a concentration of approximately 15 nM endogenous CETP in the assay; from tissue; host or cells: human serum
T1 sequence (P11597 18-493): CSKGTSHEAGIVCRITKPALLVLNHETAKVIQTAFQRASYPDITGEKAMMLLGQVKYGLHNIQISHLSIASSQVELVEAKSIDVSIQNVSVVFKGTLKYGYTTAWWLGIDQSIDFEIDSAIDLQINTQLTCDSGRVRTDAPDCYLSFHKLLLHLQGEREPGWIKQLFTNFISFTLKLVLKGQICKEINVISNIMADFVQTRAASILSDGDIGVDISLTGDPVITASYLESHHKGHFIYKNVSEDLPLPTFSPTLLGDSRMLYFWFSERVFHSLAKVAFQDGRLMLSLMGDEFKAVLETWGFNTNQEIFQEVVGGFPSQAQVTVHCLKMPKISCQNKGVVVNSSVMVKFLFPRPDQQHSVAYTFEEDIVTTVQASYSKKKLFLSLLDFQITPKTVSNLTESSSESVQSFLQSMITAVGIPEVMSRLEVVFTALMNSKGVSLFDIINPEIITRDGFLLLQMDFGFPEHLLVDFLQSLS
Assay type: biochemical
Protocol: In Vitro Radioactive Assays of CETP-Catalyzed CE and TG Transfer (RTA Assay)
Reagents and sources are: [3H] cholesteryl oleate (GE #TRK.886), [3H] Triolein (Perkin-Elmer NET-431), Butylated hydroxyl toluene (Aldrich, #D4740-4), DOPC (Sigma, # P6354), Sodium Bromide (Fisher scientific #S255-500), PEG 8000 (Fisher, #BP233-1), and human HDL (Intracel Corp #RP-036).
An in vitro assay for determining IC50's to identify compounds that inhibit CETP transfer activity is performed based on a modification of a published method (Morton and Zilversmit, (1981) A plasma inhibitor of triglyceride and cholesteryl ester transfer activities, J. Biol. Chem. 256(23), 11992-11995). The ability of inhibitors to alter CETP activity is performed using two different assays: one using recombinant CETP and one using an endogenous plasma source of CETP. Both assays measure the transfer of [3H] cholesteryl oleate or [3H] triolein from exogenous LDL to HDL.
Radiolabeled donor particles are generated by first combining 100 μl of 200 μM butylated hydroxyl toluene in CHCl3, 216 μL of 21.57 mM DOPC in EtOH, and either 500 μCi [3H]-triolein (Perkin Elmer #NET-431) or 500 μCi [3H]-cholesteryl oleate (GE #TRK886) in a glass tube. Reagents are mixed, dried under nitrogen, and then resuspended in 2 mL of 50 mM Tris, 27 μM EDTA at pH 7.4. After a brief vortex, the solution is sonicated until clear and mixed with 20 mL of fresh human serum. The mixture is incubated overnight at 37° C. The [3H] labeled LDL substrate is separated at 1.063 g/ml density by sequential ultracentrifugal flotation in NaBr according to the method of Havel, Eder, et al., 1955, and Chapman, Goldstein, et al., 1981. Once isolated the particles are dialyzed 3× in CETP buffer (50 mM Tris, pH 7.4, 100 mM NaCl, 1 mM EDTA). Human HDL is purchased from Intracel and used as the acceptor particles.
Transfer assays are performed in a 96-well v-bottom polypropylene plate. For the RTA using recombinant CETP (2% RTA), an assay cocktail is prepared with the final concentrations 128 μg/mL HDL, 20 nM rCETP, 2% human serum, and 1×CETP buffer. 1 μL of each test compound diluted in DMSO is added to 47 μL of assay cocktail per well and incubated at 37° C. for 1 hour. To initiate the transfer reaction, 2 μL radiolabeled LDL is added. After an additional 60 min of incubation at 37° C., the transfer action is terminated by precipitation of LDL with an equal volume of 20% WN PEG 8000. The plates are centrifuged at 2000 rpm for 30 minutes at 4° C. A 40 μL aliquot of the HDL-containing supernatant is transferred to a Packard Optiplate™ with 200 μL of MicroScint™ 20. After mixing, plates are counted by liquid scintillation. Counts present in the supernatant for blanks (wells containing only HDL acceptor, CETP buffer and DMSO) are subtracted from those containing test compounds and used to correct for non-specific transfer.
For the transfer assay using endogenous CETP from serum (95% RTA), the same procedure is used except that human serum is added such that a final concentration of serum of 95% of the total assay volume is achieved, yielding a concentration of approximately 15 nM endogenous CETP in the assay. This is then combined with HDL and CETP buffer and the reaction proceeds as above and is terminated as described.
Comparison of the counts of samples with inhibitors to an uninhibited (DMSO only) positive control yield a percent inhibition. A plot of percent inhibition vs. log of inhibitor concentration, fit to a Sigmoidal 4 parameter equation is used to calculate IC50.
Starting materials are commercially available or are made using known procedures or as shown below. The examples may be synthesized according to the general schemes provided below and by using the synthetic intermediates that are described. The data reported for the examples below were obtained using the RTA assay in 95% human serum.

| SMILES | IC50 [nM] |
| --- | --- |
| COc1ccc(-c2cc(-c3ccc(C(=O)O)cc3C)cnc2OC)c(CC2=NO[C@H](c3cc(C(F)(F)F)cc(C(F)(F)F)c3)C2)n1 [Example 12, (S)-4-[2′-({5-[3,5-bis(trifluoromethyl)phenyl]-4,5-dihydroisoxazol-3-yl}methyl)-2,6′-dimethoxy-3,3′-bipyridin-5-yl]-3-methylbenzoic acid] | 880 |
| COc1ccc(-c2ccc(C(=O)O)cc2C)cc1-c1cnc(C(F)(F)F)cc1CC1=NO[C@H](c2cc(C(F)(F)F)cc(C(F)(F)F)c2)C1 [Example 8, (S)-3′-[4-({5-[3,5-bis(trifluoromethyl)phenyl]-4,5-dihydroisoxazol-3-yl}methyl)-6-(trifluoromethyl)pyridin-3-yl]-4′-methoxy-2-methylbiphenyl-4-carboxylic acid] | 1070 |
| COc1cc(F)c(C(C)C)cc1-c1ccc(C(F)(F)F)cc1CC1=NO[C@H](c2cc(C(F)(F)F)cc(C(F)(F)F)c2)C1 [Example 4, (5S)-5-[3,5-bis(trifluoromethyl)phenyl]-3-{[4′-fluoro-2′-methoxy-5′-(1-methylethyl)-4-(trifluoromethyl)biphenyl-2-yl]methyl}-4,5-dihydroisoxazole] | 1290 |
| COc1ncc(-c2ccc(C(=O)O)cc2C)cc1-c1ccc(C(F)(F)F)cc1CC1=NO[C@H](c2ccnc(C(F)(F)F)c2)C1 [Example 9, (S)-4-{6-methoxy-5-[4-(trifluoromethyl)-2-({5-[2-(trifluoromethyl)pyridin-4-yl]-4,5-dihydroisoxazol-3-yl}methyl)phenyl]pyridin-3-yl}-3-methylbenzoic acid] | 6500 |
| COc1ncc(-c2ccc(C(=O)O)cc2C)cc1-c1ccc(C(F)(F)F)cc1CC1=NO[C@H](c2cc(C(F)(F)F)cc(C(F)(F)F)c2)[C@@H]1C [Example 14, 4-(5-(2-(((4R,5S)-5-(3,5-bis(trifluoromethyl)phenyl)-4-methyl-4,5-dihydroisoxazol-3-yl)methyl)-4-(trifluoromethyl)phenyl)-6-methoxypyridin-3-yl)-3-methylbenzoic acid] | 169 |
| COc1ccc(CCC(=O)O)cc1-c1ccc(C(F)(F)F)cc1CC1=NO[C@H](c2cc(C(F)(F)F)cc(C(F)(F)F)c2)C1 [Example 5, 3-[2′-({(5S)-5-[3,5-bis(trifluoromethyl)phenyl]-4,5-dihydroisoxazol-3-yl}methyl)-6-methoxy-4′-(trifluoromethyl)biphenyl-3-yl]propanoic acid] | 1500 |
| COc1ncc(-c2c(C)cc(C(=O)O)cc2C)cc1-c1ccc(C(F)(F)F)cc1CC1=NO[C@H](c2cc(C(F)(F)F)cc(C(F)(F)F)c2)[C@@H]1C [Example 13, 4-(5-(2-(((4R,5S)-5-(3,5-bis(trifluoromethyl)phenyl)-4-methyl-4,5-dihydroisoxazol-3-yl)methyl)-4-(trifluoromethyl)phenyl)-6-methoxypyridin-3-yl)-3,5-dimethylbenzoic acid] | 343 |
| COc1ncc(-c2ccc(C(=O)O)cc2C)cc1-c1ccc(C(F)(F)F)cc1CC1=NO[C@H](c2cc(C(F)(F)F)cc(C(F)(F)F)c2)C1 [Example 6, 4-{5-[2-({(5S)-5-[3,5-bis(trifluoromethyl)phenyl]-4,5-dihydroisoxazol-3-yl}methyl)-4-(trifluoromethyl)phenyl]-6-methoxypyridin-3-yl}-3-methylbenzoic acid] | 537 |
| COc1ncc(-c2ccc(C(=O)O)cc2C)cc1-c1ccc(C(F)(F)F)nc1CC1=NO[C@H](c2cc(C(F)(F)F)cc(C(F)(F)F)c2)C1 [Example 10, (S)-4-[2′-({5-[3,5-bis(trifluoromethyl)phenyl]-4,5-dihydroisoxazol-3-yl}methyl)-2-methoxy-6′-(trifluoromethyl)-3,3′-bipyridin-5-yl]-3-methylbenzoic acid] | 400 |
| COc1ncc(-c2ccc(C(=O)O)cc2C)cc1-c1cnc(C(F)(F)F)cc1CC1=NO[C@H](c2cc(C(F)(F)F)cc(C(F)(F)F)c2)C1 [Example 7, (S)-4-[4′-({5-[3,5-bis(trifluoromethyl)phenyl]-4,5-dihydroisoxazol-3-yl}methyl)-2-methoxy-6′-(trifluoromethyl)-3,3′-bipyridin-5-yl]-3-methylbenzoic acid] | 4970 |

Same assay, conditions: read-out: IC50 RTA (95% HS)

| SMILES | IC50 [nM] |
| --- | --- |
| COc1ccc(-c2ccc(C(=O)O)cc2C)cc1-c1ccc(C(F)(F)F)cc1CC1=NO[C@H](c2cc(C(F)(F)F)cc(C(F)(F)F)c2)[C@@H]1C [Example 3B, 2″-(((4R,5S)-5-(3,5-bis(trifluoromethyl)phenyl)-4-methyl-4,5-dihydroisoxazol-3-yl)methyl)-4′-methoxy-2-methyl-4″-(trifluoromethyl)-[1,1′:3′,1″-terphenyl]-4-carboxylic acid] | 293 |
| COc1cc(F)c(-c2ccc(C(=O)O)cc2C)cc1-c1ccc(C(F)(F)F)cc1CC1=NO[C@@H](c2cc(C(F)(F)F)cc(C(F)(F)F)c2)C1 [Example 1B, (R)-2″-((5-(3,5-bis(trifluoromethyl)phenyl)-4,5-dihydroisoxazol-3-yl)methyl)-6′-fluoro-4′-methoxy-2-methyl-4″-(trifluoromethyl)-[1,1′:3′,1″-terphenyl]-4-carboxylic acid] | 1600 |
| COc1cc(F)c(-c2ccc(-c3n[nH]c(=O)o3)cc2C)cc1-c1ccc(C(F)(F)F)cc1CC1=NO[C@H](c2cc(C(F)(F)F)cc(C(F)(F)F)c2)C1 [Example 2, (S)-5-(2″-((5-(3,5-bis(trifluoromethyl)phenyl)-4,5-dihydroisoxazol-3-yl)methyl)-6′-fluoro-4′-methoxy-2-methyl-4″-(trifluoromethyl)-[1,1′:3′,1″-terphenyl]-4-yl)-1,3,4-oxadiazol-2(3H)-one] | 167 |
| COc1ccc(-c2ccc(C(=O)O)cc2C)cc1-c1ccc(C(F)(F)F)cc1CC1=NO[C@@H](c2cc(C(F)(F)F)cc(C(F)(F)F)c2)[C@H]1C [Example 3A, 2″-(((4S,5R)-5-(3,5-bis(trifluoromethyl)phenyl)-4-methyl-4,5-dihydroisoxazol-3-yl)methyl)-4′-methoxy-2-methyl-4″-(trifluoromethyl)-[1,1′:3′,1″-terphenyl]-4-carboxylic acid] | > 10000 |
| COc1cc(F)c(-c2ccc(C(=O)O)cc2C)cc1-c1ccc(C(F)(F)F)cc1CC1=NO[C@H](c2cc(C(F)(F)F)cc(C(F)(F)F)c2)C1 [Example 1A, (S)-2″-((5-(3,5-bis(trifluoromethyl)phenyl)-4,5-dihydroisoxazol-3-yl)methyl)-6′-fluoro-4′-methoxy-2-methyl-4″-(trifluoromethyl)-[1,1′:3′,1″-terphenyl]-4-carboxylic acid] | 37 |
